Measured values reported in patent publication US11123355B2, “Antiviral benzyl-amine phosphodiamide compounds” (Merck Sharp & Dohme Corp., priority 2016, dated 2021).
Where two headings read alike, the source gives them in different places.

Legend:
[1] = Prodrug Stability Assay in Bio-Relevant Media (FaSSIF with Pancreatin); format: in vitro ADME; settings: 0.5 mg/mL Pancreatin in FaSSIF, 37° C.; HPLC peak area of prodrug at 5 h divided by that at 0 h
Procedure: Prodrug Stability Assay in Bio-Relevant Media
The following assay was employed to evaluate the stability of the prodrugs in simulated gastrointestinal tract conditions. Preparation of fasted state simulated intestinal fluid (FaSSIF) using Phares SIF Powder was carried out according to protocols from Phare Drug Delivery AG (Baselland, Switzerland). For sample preparation, 10 μL stock solutions (10 mM) of prodrug substance in DMSO was added to 990 μL of 0.5 mg/mL Pancreatin solution (Fisher CAS #8049-47-6) in FaSSIF. Two samples were prepared for each compound. If the sample was a clear solution, it was directly analyzed by HPLC. If the sample was not clear, the sample was diluted with 100% MeCN, maintained at 37° C. and observed 5 h later. If the sample was clear, HPLC analysis was directly performed. If the sample was still not clear, the sample was diluted with 100% ACN and assayed by HPLC. All the samples were vortexed for 3 min and observed before injection. For the diluted samples, the area is multiplied by a dilution factor when the data is analyzed. The analysis was carried out with an Agilent 1100 series HPLC with autosampler. The column was a Poroshell 120 EC-C18, 4.6×50 mm, 2.7 μm. The flow rate was 1.8 mL/min, and the injection volume was 5 or 10 μL. UV detection was in the range 210-400 nm. The mobile phase consisted of solvent A (water plus 10 mM tetrabutylammonium bromide) and solvent B (acetonitrile) with a gradient of: 90% solvent A at 0 min, changing to 95% solvent B over 6 min, maintaining for 1.5 min, then reverting to 90% solvent A over 1.6 min. The HPLC peak area of the prodrug at 5 h was divided by the HPLC peak area of the prodrug at 0 h, to generate the % claimed parent ratio, which is summarized in Table 2 for gastrointestinal (GI) Tract stability.

[2] = system: HIV-1 (H9/IIB strain); assay: Multiple Round HIV-1 Infection Assay (Viking Assay) in MT4-GFP cells; format: cell-based; settings: inhibition of reproductive ratio R0
Summary of the method: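 Inhibition of the reproductive ratio R0, derived from the rise in GFP-positive cells between ~48 h and ~72 h post-infection, was fitted by 4-parameter regression to give IC50. Cells infected at MOI ~0.01 were exposed to compound (typically 8.4 μM–0.42 nM final) in 10% or 50% normal human serum.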

[3] = Pharmacokinetic Studies in Dogs - In Vivo Dog PK; design: species or system beagle dogs; settings: dog PBMCs at 24 h following a 10 mg/kg P.O. dose of the prodrug
Procedure: Pharmacokinetic Studies in Dogs—In Vivo Dog PK
Prodrugs were administered to beagle dogs through intravenous (IV) and oral (P.O.) administrations in a non-crossover manner. The IV dose was prepared in 20% hydroxypropyl β-cyclodextrin (HPBCD) or polyethylene glycol 200:ethanol:water (70:10:20 v/v/v). The dose was administered via cephalic or saphenous vein. The P.O. dose was prepared in 10% polysorbate 80 (Tween 80) and was administered via gavage.
Blood samples were serially collected following dose administration for up to 48 hr and plasma was separated by centrifugation. The concentrations of prodrugs in dog plasma were determined by a LC-MS/MS assay following a protein precipitation step and addition of an appropriate internal standard (labetalol, imipramine or diclofenac). Quantification was done by determining peak area-ratios of the prodrugs and tenofovir to the internal standard. Additional blood sample(s) was collected following dose administration for up to 24 hr. […] The concentrations of tenofovir and/or its phosphate conjugate(s) in PBMCs were determined by an LC-MS/MS assay following a protein precipitation step and addition of an appropriate internal standard (labetalol, imipramine or diclofenac). Quantification was done by determining peak area-ratios of tenofovir and/or its phosphate conjugate(s) to the internal standard.
Pharmacokinetic parameters were obtained using non-compartmental methods (Watson®). The area under the plasma concentration-time curve (AUC0-t) was calculated from the first time point (0 min) up to the last time point with measurable drug concentration using the linear trapezoidal or linear/log-linear trapezoidal rule. The IV plasma clearance was calculated by dividing the dose by AUC0-inf. The terminal half-life of elimination was determined by unweighted linear regression analysis of the log-transformed data. […] The volume of distribution at steady state (Vdss) was obtained from the product of plasma clearance and mean residence time (determined by dividing the area under the first moment curve by the area under the curve). […]

[4] = MT4-GFP cells infected with HIV-1, 10% normal human serum, read-out: Viking, IC50 (10% NHS)
[5] = MT4-GFP cells infected with HIV-1, 50% normal human serum, read-out: Viking, IC50 (50% NHS)

## CCCOC(=O)C(C)(C)NP(=O)(CO[C@H](C)Cn1cnc2c(N)ncnc21)N[C@@H](C)c1ccc(Cl)cc1 (stereo partly drawn) [Example 13A, propyl 2-(((R)-((((R)-1-(6-amino-9H-purin-9-yl)propan-2-yl)oxy)methyl)(((S)-1-(4-chlorophenyl)ethyl)amino)phosphoryl)ami-no)-2-methylpropanoate and propyl 2-(((S)-((((R)-1-(6-amino-9H-purin-9-yl)propan-2-yl)oxy)methyl)(((S)-1-(4-chlorophenyl)ethyl)amino)phosphoryl)ami-no)-2-methylpropanoate]
[1]
  GI Tract stability (%): 98.5%
[2]; [4]
  IC50: 8.4 nM
[2]; [5]
  IC50: 75 nM
[3]
  In Vivo Dog PK (μM): TFV-DP concentrations in dog PBMCs: 15.9 µM

## propyl 2-(((R)-((((R)-1-(6-amino-9H-purin- 9-yl)propan-2-yl)oxy)methyl)((4- isopropylbenzyl)amino)phosphoryl)amino)- 2-methylpropanoate and propyl 2-(((S)-((((R)-1-(6-amino-9H-purin- 9-yl)propan-2-yl)oxy)methyl)((4- isopropylbenzyl)amino)phosphoryl)amino)- 2-methylpropanoate [Example 5A]
[1]
  GI Tract stability (%): 96.3%
[2]; [4]
  IC50: 3.1 nM
[2]; [5]
  IC50: 17 nM
[3]
  In Vivo Dog PK (μM): TFV-DP concentrations in dog PBMCs: 7.7 µM
